Experimental data taken from patent US7745450B2, “Pyrazolo[4,3-d]pyrimidines, processes for their preparation and methods for therapy” (Institute of Experimental Botany, priority 2002, dated 2010).
Like-named read-outs stand apart in the source and are kept apart here. Values belong to the compound of their own block, whether it stands above or below them.

Assays:
[1] = target: cdk1/cyclin B (CDC2) (Homo sapiens, UniProt P06493); assay: CDK inhibition assay, cdk1/cyclin B (CDC2) kinase, histone phosphorylation; type: biochemical
Summary of the method: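 Human cdk1/cyclin B activity measured with 1 mg/ml histone substrate, 15 μM ATP plus [γ-32P]ATP, in HEPES pH 7.4 buffer with 10 mM MgCl2. Phosphorylation quantified by phosphorimaging; activity expressed as % of maximum, IC50 from dose-response curves by graphic analysis.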

[2] = tested on: myeloid leukemia KG1 cell line; assay: Cell proliferation of KG1, flow cytometric cell count; type: cell-based, human; conditions: 96 hours; for IC50: read-out: KG1 IC50
Description: (§1) Cell lines: Human leukemic cell lines were obtained from the American Type Culture Collection (ATCC, Rockville, Md., USA). They were cultured in Iscove's Modified Dulbecco's Medium (IMDM) supplemented with 10% heat inactivated fetal calf serum (FCS), 200 U/ml penicillin, 200 μg/ml streptomycin and 1 μg/ml amphotericin B. Cells were cultured in a 5% CO2-95% air fully humidified incubator. For effects on clonogenic output, 1000 cells/well were plated in duplicate in methylcellulose (0.9%), supplemented with 20% FCS for 14 days.
(§2) Cells were plated at 10000 per well in 200 μl IMDM medium and incubated with 0-50 μM of the novel compounds (Tab 8), by addition of drug directly to the culture medium and incubated at 37° C. for 96 hours (Tab 8). Absolute cell number was determined by addition of a known concentration Fluoresbrite microspheres (FITC) (Polysciences, Inc.). The absolute number of cells/well was calculated as: {(total number of beads added/well)/(number of beads measured)×(number of measured cells in the gate of interest)}. All analyses were performed with a FACScan (BD), using CELLQuest software (Becton Dickinson).
(§3) Response of the myeloid leukemia KG1 and T-lymphocyte leukemia Molt3 cell lines to the cytostatic effect of the novel compounds was determined using the above-mentioned standardized bead suspension that was used to determine the absolute cell number by flow cytometric (FCM) measurement. Cells were grown in the presence of increasing concentration of the novel compounds.
To determine reversibility of the effects of the novel compounds, cells were plated at 10000 per well and exposed to 0-50 μM of the compounds for the time indicated, followed by washing in phosphate-buffered saline (PBS) (Life Technologies) and reseeded into drug-free medium for 7 additional days. An identical set of cells was plated and exposed to the drugs for 7 additional days. After 7 days (168 hours), the relative cell number was assayed by flow cytometry.

[3] = tested on: PHA-stimulated lymphocytes (PBMC); assay: Proliferation of PHA-stimulated lymphocytes (PBMC), flow cytometric cell count; type: cell-based, human; conditions: 96 hours, IL-2
Description: Peripheral blood mononuclear cells (PBMC): Human peripheral blood mononuclear cells were isolated by density gradient (Ficoll-Hypaque) (LSM, ICN Biomedicals Inc.). PBMC were stimulated with 5 μg/ml phytohemaglutinin A (PHA) (Sigma) during 24-48 hours in IMDM supplemented with 10% FCS at 37° C. After washing off the PHA, PBMC were incubated with interleukin-2 (IL-2) (10 U/ml) (Genzyme).
as §2
PHA-stimulated lymphocytes (PBMC) were tested for their cytotoxicity as one of the normal counterparts of the cell lines. Cells were grown for 96 hours in the presence of IL-2 and different concentrations of the novel compounds and cell number was counted on the flow cytometer.

[4] = tested on: T-lymphocyte leukemia Molt3 cell line; assay: Cell proliferation of Molt3, flow cytometric cell count; type: cell-based, human; conditions: 96 hours
Description: as §1, §2, §3

[5] = tested on: β-adrenergic receptors; assay: Modulation of isoproterenol-induced cAMP synthesis in rat C6 glioma; type: cell-based; conditions: cAMP synthesis induced by 5 μM (−) isoproterenol; for IC50: read-out: I50
Description: Mechanism of action of novel compounds is presented on FIG. 3. Rat C6 glioma (ATCC N° CCL107) was cultivated in monolayer in serum-free chemically defined medium containing Ham's F10/minimal essential medium (1:1 vol/vol), 2 mM L-glutamine, 1% (vol/vol) minimal essential medium vitamins (100×), 1% (vol/vol) minimal essential medium nonessential amino acids (100×), 100 U/ml penicillin, 100 μg/ml streptomycin and 30 nM sodium selenide. Incubation was at 37° C. in a humidified atmosphere. Assays were performed in the logarithmic growth phase at a density of 2.5×10^5 cells/cm^2. Intracellular cAMP synthesis was induced by addition of 5 μM (−) isoproterenol. After 30 min incubation at 37° C. the medium was removed and the cellular amount of cAMP determined using the cAMP-enzyme immunoassay kit of Amersham. The I50 is determined from a dose-response curve in duplicate.
The effect of seven purine-analogs was measured after simultaneous addition with isoproterenol.

[6] = tested on: human melanoma cell line Arn8 (p53-responsive reporter); assay: p53-dependent transcriptional activity, β-galactosidase reporter; type: cell-based; conditions: concentration inducing maximum of β-galactosidase activity
Description: Cell lines established from the human cervical carcinoma (HeLa), human breast carcinoma (MCF-7, BT549 and BR474), human osteosarcoma (HOS), human colon carcinoma (HT29), murine fibroblasts (T221acZ) and the human melanoma (Arn8) cell lines were cultured in Dubecco's Modified Eagle Medium (DMEM) supplemented with 10% fetal bovine serum. Tested compounds were added from 50 mM stock solution in dimethyl-sulphoxide (DMSO) into the culture medium at final concentration 20 μM. Control cells received an equivalent volume of DMSO.
β-galactosidase activity of human melanoma cell line […] T221acZ (both stabile transfected with a p53-responsive reporter construct pRGCΔfoslacZ) (Frebung et al., Cancer Res., 52, 1992-6976) was determined. For the determination of total β-galactosidase activity, cells were lysed by 3 freeze-thaw cycles in 0.25 M Tris pH 7.5, and lysates were assayed as described by Sambrook et al., Mol. cloning, New York, 1989.
Effect of 25 and related compounds on activation of p53 protein was also analyzed in human melanoma cell line Arn8 and murine fibroblast cell line T22LacZ expressing β-galactosidase under control of p53 responsive promoter. Induction of wt p53 in these cells treated with 20 μM 25 (6, 12 and 24 hrs) leads to activation of responsive promoter and consequently to expression of β-galactosidase. Arn8 and T221acZ cells treated with 25 were fixed and examined microscopically for β-galactosidase activity using X-gal substrate leading to about 25% blue-colored cells compared to less than 1% of blue-colored cells in DMSO-treated control cells (data not shown). The total β-galactosidase activity in Arn8 cells was also assessed using colorimetric assay.

[7] = tested on: Cytokinin-dependent tobacco callus Nicotiana tabacum L. cv. Wisconsins 38; assay: Tobacco callus bioassay for cytotoxicity (herbicidal activity); type: cell-based; conditions: Nicotiana tabacum, 672 h
Description: The novel compounds have also been tested in tobacco callus bioassay for cytotoxicity (herbicidal activity) and induction of cell death. The compounds to be tested were dissolved in dimethylsulfoxide (DMSO) and the solution brought up to 10^−3 M with distilled water. […] Cytokinin-dependent tobacco callus Nicotiana tabacum L. cv. Wisconsins 38 Murashige-Skoog medium, containing per 1 liter: 4 μmol nicotinic acid, 2.4 μmol pyridoxine hydrochloride, 1.2 μmol thiamine, 26.6 μmol glycine, 1.37 μmol glutamine, 1.8 μmol myo.inositol, 30 g of sucrose, 8 g of agar, […] α-naphthylacetic acid and 0.5 μmol 6-benzylaminopurine. Sub cultivation was carried out every three weeks. Fourteen days before the bioassay, the callus tissue was transferred to the media without 6-benzylaminopurine. Compounds were tested with two different concentrations of 6-benzylaminopurine (10^−5 M and 10^−6 M). Inhibitory growth activity was determined from the increase in fresh callus weight after four weeks of cultivation. Five replicates were prepared for each concentration tested and the entire test was repeated at least twice.

Sequence of cdk1/cyclin B (CDC2) (P06493 whole entry, species assumed): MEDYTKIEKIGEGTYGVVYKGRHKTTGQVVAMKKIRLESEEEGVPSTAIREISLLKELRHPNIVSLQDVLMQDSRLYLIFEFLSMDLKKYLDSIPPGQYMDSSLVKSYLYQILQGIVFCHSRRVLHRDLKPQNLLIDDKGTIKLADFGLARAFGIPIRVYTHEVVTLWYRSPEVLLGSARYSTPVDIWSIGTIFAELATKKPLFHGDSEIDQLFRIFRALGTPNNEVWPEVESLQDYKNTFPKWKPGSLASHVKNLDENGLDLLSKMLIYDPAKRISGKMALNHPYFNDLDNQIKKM
Sequence of cdk1/cyclin B (CDC2) (P14635 whole entry partner, species assumed): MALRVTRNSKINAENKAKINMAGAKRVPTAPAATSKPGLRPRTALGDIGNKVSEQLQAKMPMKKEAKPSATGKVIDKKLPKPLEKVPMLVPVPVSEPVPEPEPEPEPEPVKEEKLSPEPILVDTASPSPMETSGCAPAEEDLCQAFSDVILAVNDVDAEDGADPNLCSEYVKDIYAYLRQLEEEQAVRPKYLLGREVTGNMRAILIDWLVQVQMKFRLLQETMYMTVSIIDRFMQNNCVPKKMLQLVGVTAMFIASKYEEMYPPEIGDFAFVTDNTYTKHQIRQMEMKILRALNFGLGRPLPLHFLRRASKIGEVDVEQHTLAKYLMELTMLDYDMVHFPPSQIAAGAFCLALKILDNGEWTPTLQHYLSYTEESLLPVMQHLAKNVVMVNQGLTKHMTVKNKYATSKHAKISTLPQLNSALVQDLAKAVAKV

IC50 ([1]; cell free system (Table 8)): 1.2 µM
IC50 ([2]; Homo sapiens, KG-1): 8 ± 1 µM
IC50 ([4]; Homo sapiens, MOLT-3): 10 ± 1 µM
Compound: CCC(CO)Nc1nc(NCc2ccc(O)c(O)c2)c2[nH]nc(C(C)C)c2n1 (centres unmarked) [Compound 47, 5-(1-ethyl-2-hydroxyethylamino)-7-(3,4-dihydroxybenzyl)amino-3-isopropylpyrazolo[4,3-d]pyrimidine]
IC50 ([3]; Homo sapiens, Lymphocyte): 3 ± 1.2 µM

IC50 ([1]; cell free system (Table 8)): 5.5 µM
IC50 ([2]; Homo sapiens, KG-1): 28 ± 1.5 µM
IC50 ([4]; Homo sapiens, MOLT-3): 20 ± 1.3 µM
Compound: CC(C)c1n[nH]c2c(NC(CO)c3ccccc3)nc(N3CCOCC3)nc12 (centres unmarked) [Compound 85, 5-(morpholino)-7-(1-phenyl-2-hydroxyethylamino)-3-isopropylpyrazolo[4,3-d]pyrimidine]
IC50 ([3]; Homo sapiens, Lymphocyte): 20 ± 7.7 µM

IC50 ([1]; cell free system (Table 8)): 5.8 µM
IC50 [2]: 9 ± 0.4 µM
IC50 [4]: 10 ± 1.2 µM
Compound: 5-(2-hydroxyethylthio)-671-phenyl-2-hydroxyethylamino-3-isopropylpyrazolo[4,3-d]pyrimidine [Compound 96]
Effectiveness on KG1 compared with normal PBMC [2]: significantly more effective on KG1 than on normal PBMC
IC50 [3]: 8 ± 0.5 µM

IC50 [5]: 25 ± 2 µM
IC50 [1]: 0.08 µM
Compound: CC(C)c1n[nH]c2c(NCc3ccccc3)nc(NCCCN)nc12 [Compound 17, 5-(3-aminopropylamino)-7-benzylamino-3-isopropylpyrazolo[4,3-d]pyrimidine]
IC50 ([7]; read-out: 10^−5 M BAP IC50, 10^−5 M 6-benzylaminopurine, four weeks): > 50 µM
IC50 ([7]; read-out: 10^−6 M BAP IC50, 10^−6 M 6-benzylaminopurine, four weeks): 48 µM

Effect ([5]; simultaneous addition, 30 min): inhibition
IC50 [5]: 25 ± 2 µM
Compound: CC(C)c1n[nH]c2c(NCc3ccccc3)nc(NC(CO)C(C)C)nc12 (centres unmarked)

IC50 ([1]; cell free system (Table 8)): 1 µM
IC50 [2]: 15.3 ± 2.4 µM
IC50 [4]: 14 ± 3.2 µM
Compound: 5-(hexylamino)-7-[N-(3,4-dihydroxybenzyl-N-methyl]amino-isopropylpyrazolo[4,3-d]pyrimidine [Compound 41]
IC50 [3]: 10 ± 2 µM

IC50 ([1]; cell free system (Table 8)): > 50 µM
IC50 [2]: 12 ± 1 µM
IC50 [4]: 13.4 ± 1.4 µM
Compound: CC(C)c1n[nH]c2c(N[C@@H](CO)c3ccccc3)nc(NC[C@H](O)CO)nc12 [Compound 158, 5-(2,3-dihydroxypropylamino)-7-[(R,S)-(1-phenyl-2-hydroxyethyl)amino]-3-isopropylpyrazolo[4,3-d]pyrimidine]
IC50 [3]: 10 ± 1 µM

IC50 ([1]; cell free system (Table 8)): > 50 µM
IC50 ([2]; Homo sapiens, KG-1): 42 ± 5 µM
IC50 ([4]; Homo sapiens, MOLT-3): 19 ± 2 µM
Compound: CC(C)c1n[nH]c2c(SCc3ccccc3)nc(NCCCO)nc12 [Compound 145, 5-(3-hydroxypropylamino)-7-benzylthio-3-isopropylpyrazolo[4,3-d]pyrimidine]
IC50 ([3]; Homo sapiens, Lymphocyte): 18 ± 1.6 µM

IC50 ([1]; cell free system (Table 8)): 33 µM
IC50 [2]: 42 ± 4.8 µM
IC50 [4]: 42.5 ± 6 µM
Compound: 5-(5-cyanopentyl)-7-[(R,S)-(1-phenyl-2-hydroxyethyl)amino]-9-isopropylpurine [Compound 123]
IC50 [3]: 33 ± 4.4 µM

The remaining lines, values behind:

Compound: CC[C@H](CO)Nc1nc(NCc2ccc(O)cc2)c2[nH]nc(C(C)C)c2n1
Effect: activation ([5]; simultaneous addition, 30 min): 1.8-fold activation

Compound: COc1ccc(CNc2nc(NC3CCCC3)nc3c(C(C)C)n[nH]c23)cc1
Max β-Gal. Activtity Conc. [6]: 21 µM

Compound: CC[C@H](CO)Nc1nc(NCc2ccc(OC)cc2)c2[nH]nc(C(C)C)c2n1
Max β-Gal. Activtity Conc. [6]: 0.8 µM

Compound: 5-(3-hydroxypropylamino)-7-[N-(3,4-dihydroxybenzyl-N-methyl]amino-isopropylpyrazolo[4,3-d]pyrimidine [Compound 42]
IC50 ([1]; cell free system (Table 8)): 2.6 µM
IC50 [2]: 10.7 ± 0.3 µM
IC50 [3]: 5.9 ± 2.9 µM
IC50 [4]: 13 ± 2.1 µM

Compound: CC(C)c1n[nH]c2c(NCc3ccccc3)nc(NCCCO)nc12 [Compound 7, 5-(3-hydroxypropylamino)-7-benzylamino-3-isopropylpyrazolo[4,3-d]pyrimidine]
IC50 [1]: 0.2 µM
IC50 ([1]; cell free system (Table 8)): 1 µM
IC50 ([2]; Homo sapiens, KG-1): 25 ± 4.4 µM
IC50 ([3]; Homo sapiens, Lymphocyte): 9 ± 0.2 µM
IC50 ([4]; Homo sapiens, MOLT-3): 24 ± 2.2 µM

Compound: 5-(hexylamino)-7-(1-phenyl-2-hydroxyethylamino)-3-isopropylpyrazolo[4,3-d]pyrimidine [Compound 98]
Effect ([5]; simultaneous addition, 30 min): inhibition
IC50 [5]: 8 ± 1 µM

Compound: CC(C)c1n[nH]c2c(Nc3cccc(Cl)c3)nc(NC3CCCC3)nc12
Max β-Gal. Activtity Conc. [6]: 11.5 µM
